Tests used:
[1] = Maximum H2O2 capacity in continuous cyclic anthraquinone process test system; settings: compared with EAQ
Procedure: A working solution consisting of 75% by volume aromatic benzine (C9/C10-alkyl aromatic mixture), 25% by volume tris (2-ethylhexylphosphate), 0.11 mol/l 2-ethylanthraquinone, 0.29 mol/l 2-ethyltetrahydroanthraquinone, 0.13 mol/l 2-isohexylanthraquinone and 0.12 mol/l 2-isohexyltetrahydroanthraquinone was tested in a test system for the cyclic process of the anthraquinone method for producing hydrogen peroxide, consisting of the method steps of hydrogenation, oxidation, and extraction as well as of drying, regeneration and purification concerning the maximum H2O2 production capacity obtainable in continuous operation (g H2O2 produced per liter working solution). […]
The maximum H2O2 capacity of a working solution consisting of 75 by volume aromatic benzine (C9/C10-alkyl aromatic mixture), 25% by volume tris (2-ethylhexyl) phosphate, 0.12 mol/l 2-ethylanthraquinone, 0.28 mol/l 2-ethyltetrahydroanthraquinone, 0.13 mol/l 2-amylanthraquinone and 0.12 mol/l 2-amyltetrahydroanthraquinone was determined analogously to example 6. […]
The maximum H2O2 capacity of a working solution whose solvent system was based essentially on a C9/C10-aromatic benzine and tetrabutylurea (volumetric ratio AB:TBH approximately 3:1) was determined analogously to example 6 at a hydrogenation temperature of 60° C. […]

[2] = Oxidation stability of the quinone (oxygen, radical initiator, 150° C.); assay type: physicochemical; settings: 0.04 mole quinone in 100 ml 1,2-dichlorobenzene, 10 mg azo-bis-isobutyronitrile, excess oxygen, after 24 h

oxidative degradation under the conditions of the cyclic anthraquinone process [1] | SMILES | residual quinone content [2] [%]
not degraded oxidatively more than EAQ | CC(C)=CCCc1ccc2c(c1)C(=O)c1ccccc1C2=O [IHEAQ, 2-(4-methyl-3-pentenyl) anthraquinone] | 41
– | CCc1ccc2c(c1)C(=O)c1ccccc1C2=O [EAQ, 2-ethyl anthraquinone, reference compound] | 90

— patent publication US6355815B1, “Method of producing hydrogen peroxide and reaction promoters therefor” (Degussa AG, priority 1998, dated 2002)
